Measurements: patent US11247994B2, “6-dithio-substituted-2′-deoxyguanosine compound, preparation method thereof and use thereof” (ZHEJIANG UNIVERSITY, priority 2018, dated 2022)

How the values were obtained:
TrxR/Trx-1 = target: T1, TrxR/Trx-1 (Homo sapiens, UniProt P10599); assay: Ellman test, inhibition of TrxR/Trx-1 activity; type: biochemical; conditions: Ellman reaction, 37° C. 30 min, absorbance 412 nm; read-out: IC50, inhibition of TrxR/Trx-1 activity
T1 sequence (P10599 2-105 limits assumed): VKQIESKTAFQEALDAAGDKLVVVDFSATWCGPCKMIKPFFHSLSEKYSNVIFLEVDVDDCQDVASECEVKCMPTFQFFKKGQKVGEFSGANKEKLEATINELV
Source text: Ellman Test—Inhibitory Effect of 6-dithio-substituted-2′-deoxyguanosine Derivative Analogues on TrxR/Trx-1 Activity
A TrxR/TR experiment based on the Ellman reaction was used to determine the inhibitory activity of candidate compounds. Ellman reaction is that 5,5′-dithiobis (2-nitrobenzoic acid) (DTNB) reacts with sulfhydryl (—SH) to form a yellow substance with absorption at 412 nm. The increase of absorption can be equivalent to the decrease of NADPH mediated by TrxR, thus further judging the activity of TrxR/Trx-1. All experiments were carried out on 96-well plates. Before the start of the enzyme reaction, five groups of corresponding test compound stock solutions with different concentrations were prepared. In the TrxR/Trx-1 reaction, a total volume per well was 60 μL, including 100 mM HEPES, 5 mM EDTA (HE buffer, pH 7.5), 1 mM NADPH, 1.0 μM TrxR, 0.8 μM Trx-1, 2.5 mg/mL bovine insulin and the required concentration of compounds to be tested. No compound to be tested was added to the control group. No compound to be tested, TrxR and Trx-1 were added in the blank group. The plate was shaken on an oscillator for 30 seconds to fully mix the reactants. After incubation at 37° C. for 30 min, 100 μL of the prepared mixture containing 6 M guanidine hydrochloride, 50 mm Tris and 10 mm DTNB was added to terminate the reaction. After 15 minutes of incubation, the absorbance was measured at 412 nm. Finally, TrxR/Trx-1 activity %=(Atest−Akb)/(Acontrol−Akb), that is, the relative percentage of TrxR/Trx-1 activity was the activity inhibited by adding 2′-deoxyguanosine derivatives relative to the activity without 2′-deoxyguanosine derivatives. The data were fitted into a concentration response curve with a variable slope, and the IC50 value was calculated from the curve.

NCM460 = assay: MTT assay, cell growth inhibition, NCM460; type: cell-based; conditions: Homo sapiens, 48 hours, read-out: Tumor cell growth inhibition IC50, NCM460
Source text: (§1) MTT Assay—Inhibitory Effect of 6-dithio-substituted-2′-deoxyguanosine Derivatives on Tumor Cell Growth
(§2) We measured the tumor cell growth inhibitory activity of candidate compounds by MTT assay. Human tumor cells in logarithmic growth phase were digested with 0.25% pancreatin for a certain time, centrifuged, re-suspended and counted with a blood cell counting plate to prepare a cell suspension, and the cell suspension was adjusted to 1.0×10^4-1×10^5 cells/mL. The cell suspension was inoculated into a 96-well culture plate, 100 μL per well, and cultured in an incubator with saturated humidity, 37° C. and 5% CO2 for 24 hours until the cells completely adhered to the wall. The test compound was diluted to the required concentration with a complete medium, the complete medium of the 96-well culture plate inoculated with human tumor cells was sucked out, a medicament-containing medium was added, 100 μL per well, the final concentration of DMSO was less than 0.1%, and the culture plate was put in an incubator for 48 hours. 10 μl of MTT was added to each well of the 96-well plate, and the culture was continued for 4 h. The culture was stopped and the culture solution in the well was carefully sucked off. 150 μL DMSO was added to each well, and shaken at a low speed for 10 min on a shaking table, so that the crystal was fully dissolved. The absorbance of each well was measured at OD 570 nm of an enzyme-linked immunosorbent assay instrument. At the same time, zeroing wells (the culture medium, MTT, dimethyl sulfoxide) and control wells (cells, a drug dissolution medium with the same concentration, a culture solution, MTT, dimethyl sulfoxide) were set up, and the cell growth inhibitory activity was calculated with the corresponding solvents as the control. 3-6 multiple wells in each group were set up with repetition of several times. Cell viability of control=(Adrug group−Azeroing well)/(Acontrol well−Azeroing well)*100%. Drawing was drawn, the data were fitted into a concentration response curve with a variable slope, and IC50 value was calculated from the curve.

[1] = system: human colon cancer cells HCT116; assay: MTT assay, tumor cell growth inhibition, HCT116; type: cell-based; conditions: HCT-116, 48 hours
Source text: as §1, §2

[2] = system: human colon cancer cells SW620; assay: MTT assay, tumor cell growth inhibition, SW620; type: cell-based; conditions: SW-620, 48 hours
Source text: as §1, §2

[3] = system: human colon cancer cells HT29; assay: MTT assay, tumor cell growth inhibition, HT29; type: cell-based; conditions: HT-29, 48 hours
Source text: as §1, §2

[4] = system: human melanoma cells A375; assay: MTT assay, tumor cell growth inhibition, A375; type: cell-based; conditions: A-375, 48 hours
Source text: as §1, §2

[5] = system: human gastric cancer cells BGC; assay: MTT assay, tumor cell growth inhibition, BGC; type: cell-based; conditions: 48 hours
Source text: as §1, §2

[6] = system: human leukemia cells K562; assay: MTT assay, tumor cell growth inhibition, K562; type: cell-based; conditions: 48 hours
Source text: as §1, §2

[7] = system: human liver cancer cells HepG2; assay: MTT assay, tumor cell growth inhibition, HepG2; type: cell-based; conditions: 48 hours
Source text: as §1, §2

[8] = system: human non-small cell lung cancer A549; assay: MTT assay, tumor cell growth inhibition, A549; type: cell-based; conditions: 48 hours
Source text: as §1, §2

[9] = system: human breast cancer cells MCF7; assay: MTT assay, tumor cell growth inhibition, MCF7; type: cell-based; conditions: 48 hours
Source text: as §1, §2

[10] = system: human breast cancer cells Bcap37; assay: MTT assay, tumor cell growth inhibition, Bcap37; type: cell-based; conditions: 48 hours
Source text: as §1, §2

[11] = system: human colon cancer cell line HCT116 subcutaneous transplanted tumor; assay: Tumor-bearing test in nude mice, HCT116 subcutaneous transplanted tumor (tumor volume, TUNEL); type: in vivo; conditions: HCT116 model; for Extent of apoptosis in tumor tissue (TUNEL staining, rank order): frozen tumor sections, DAPI and TUNEL, G group = blank; for Inhibitory effect on the growth of subcutaneous transplanted tumor tissue in nude mice (rank order, from slope of tumor volume): compound A 2 mg/kg first 8 times, 10 mg/kg last 4 times, others equimolar, KB = blank
Source text: Tumor-Bearing Test in Nude Mice—Inhibitory Effect of 6-Dithio-Substituted-2′-Deoxyguanosine Derivatives on the Growth of Subcutaneous Transplanted Tumor Tissue in Nude Mice
1) Tumor-Bearing Mouse Model of Human Colon Cancer Cell Line HCT116
(§3) We took human colon cancer cell line HCT116 as the research object, and established a subcutaneous transplanted tumor model of human colon cancer in 32 immunodeficient nude mice. The 24th generation HCT116 cells in logarithmic growth phase were digested with pancreatin to prepare a single-cell suspension, and 1×10^7 cells were inoculated subcutaneously in the right armpit of male nude mice about 5 weeks old. After inoculation, cyclophosphamide (100 mg/kg) was injected intraperitoneally for two consecutive days. […] On the 20th day after colon cancer cell HCT116 was implanted subcutaneously, nude mice were divided into 7 groups by a random number table method, including a test drug group, a positive control group and a blank control group. Specifically, group A: the compound A was administrated; Group B: the compound B was administrated; Group C: the compound C was administrated; Group D: the compound D was administrated; Group E: the compound 6-thio-DG was administrated; Group F: the compound PX-12 was administrated; Group G: blank group, without administration of any compound. Except group C with 3 rats and group G with 4 rats, all other 5 groups had 5 rats, they mice were labeled and injected by tail vein once every two days for 24 days, 12 times, with the dose of compound A being 2 mg/kg for the first 8 times and 10 mg/kg for the last 4 times, and the dosages of other drugs being the same molar weights. The tumor volume was calculated by taking the length of the tumor as the longest diameter and the width as the corresponding vertical diameter, and the tumor volume V=(length×width^2) mm^3/2. 48 hours after the last treatment, blood was taken from the eyes, and then the animals were killed. Blood was centrifuged to get the supernatant, and then blood biochemical analysis was performed. Paraffin embedded sections of fixed tissues were stained with HE. The tumor mass in a frozen tissue was sectioned in a frozen state, and then stained by DAPI and TUNEL to judge the apoptosis of the tumor tissue in nude mice.

[12] = Blood biochemical analysis and HE staining of tissues in HCT116 tumor-bearing nude mice; type: in vivo; conditions: tail vein once every two days, 12 times, blood 48 hours after the last treatment
Protocol: as §3

[13] = tail vein once every two days for 24 days

Row | IC50 (TrxR/Trx-1) | IC50 [1] | IC50 [2] | IC50 [3] | IC50 [4] | IC50 [5] | IC50 [6] | IC50 [7] | IC50 [8] | IC50 [10] | Alanine aminotransferase [12] | Albumin [12] | Alkaline phosphatase [12] | Aspartate aminotransferase [12] | BUN [12] | Chloride ion [12] | Creatine kinase [12] | SMILES | IC50 (NCM460) | Extent of apoptosis in tumor tissue (TUNEL staining, rank order) [11] | Inhibitory effect on the growth of subcutaneous transplanted tumor tissue in nude mice (rank order, from slope of tumor volume) [11, 13] | further results
1 | > 100 µM | 17.5 µM | > 100000 nM | 3.04 µM | 400 nM | > 100 µM | 23.3 µM | < 10 µM | 33.6 µM | > 100 µM | 44.3 U/L | 29.8 g/L | 49.6 U/L | 172.4 U/L | 11.5 mmol/L | 120.8 mmol/L | 2125 U/L | Nc1nc2c(ncn2[C@H]2C[C@H](O)[C@@H](CO)O2)c(=S)[nH]1 [Compound 6-thio-dG, 6-thio-2′-deoxyguanosine, reference compound] | > 1 mM | D group>A group≈B group≈E group (6-thio-dG group)>C group>F group (PX-12 group)>G group (KB group) | D>B≈A≈6-thio-dG>PX-12>C>KB | IC50 [9]: > 100 µM; Creatinine [12]: 12.0 µmol/L; Glucose [12]: 3.12 mmol/L; Potassium ion [12]: 7.18 mmol/L; Sodium ion [12]: 158.8 mmol/L; Total bilirubin [12]: -0.10 µmol/L; Total cholesterol [12]: 2.62 mmol/L; Total protein [12]: 51.8 g/L; Triglyceride [12]: 1.10 mmol/L
2 | 31.7 µM | 1.27 µM | 210 nM | 4.55 µM | 600 nM | 6.09 µM | 9.88 µM | 10 to 50 µM | 30.8 µM | 18.2 µM | 33.3 U/L | 24.8 g/L | 36.0 U/L | 153.4 U/L | 10.7 mmol/L | 113.8 mmol/L | 1896 U/L | CCC(C)SSc1nc(N)nc2c1ncn2C1C[C@H](O)[C@@H](CO)O1 (stereo partly shown) [Compound A, 6-(sec-butyldithio)-2′-deoxyguanosine] | > 1 mM | D group>A group≈B group≈E group (6-thio-dG group)>C group>F group (PX-12 group)>G group (KB group) | D>B≈A≈6-thio-dG>PX-12>C>KB | Ability to inhibit the growth of transplanted tumor tissue compared with positive controls ([11]; tail vein once every two days for 24 days, equimolar doses): close to that of the positive control 6-thio-dG and stronger than that of the positive control PX-12; Creatinine [12]: -0.80 µmol/L; Glucose [12]: 2.21 mmol/L; Potassium ion [12]: 7.56 mmol/L; Sodium ion [12]: 155.6 mmol/L; Total bilirubin [12]: 0.40 µmol/L; Total cholesterol [12]: 2.99 mmol/L; Total protein [12]: 52.6 g/L; Triglyceride [12]: 0.84 mmol/L
